The NIST ThermoML archive (doi:10.1016/j.jct.2014.06.030)
Numbers after ± are expanded uncertainties.

Conditions: 101.33 kPa, Liquid; for speed of sound: Sing-around technique in a fixed-path interferometer; for mass density: Vibrating tube method

speed of sound (298.15 K)	mass density (298.15 K)	speed of sound (303.15 K)	mass density (303.15 K)	speed of sound (308.15 K)	mass density (308.15 K)	SMILES
1458.5 ± 1.2 m/s	944.6 ± 1 kg/m3	1440.2 ± 1.2 m/s	939.83 ± 1 kg/m3	1420.8 ± 1.2 m/s	935.05 ± 1 kg/m3	CN(C)C=O [dimethylformamide]
1253.6 ± 1.2 m/s	773.94 ± 1 kg/m3	1229.1 ± 1.2 m/s	769.21 ± 1 kg/m3	1205.1 ± 1.2 m/s	764.45 ± 1 kg/m3	C1CCCCC1 [cyclohexane]
1298.7 ± 1.4 m/s	1077.3 ± 1 kg/m3	1280.7 ± 1.4 m/s	1072.5 ± 1 kg/m3	1262.7 ± 1.4 m/s	1067.6 ± 1 kg/m3	Cc1ccccc1Cl [2-chlorotoluene]
1269.8 ± 1.2 m/s	879.13 ± 1 kg/m3	1246.8 ± 1.2 m/s	873.99 ± 1 kg/m3	1224.4 ± 1.2 m/s	868.83 ± 1 kg/m3	C1CCOCC1 [tetrahydropyran]
1431.6 ± 1.3 m/s	999 ± 1 kg/m3	1417.4 ± 1.3 m/s	994.65 ± 1 kg/m3	1402.2 ± 1.3 m/s	990.3 ± 1 kg/m3	CNC=O [N-methylformamide]
